Legend:
Type in all cases: cell-based
[1] = tested on: Mouse ES cells (J1 strain); experiment: Induction of Hcrt expression in neural differentiation from mouse ES cells, SDIA differentiation culture system, RT-PCR; conditions: for Expression of Hcrt with changed time of addition: 1.0 mM, addition time varied, FIG. 3; for Expression of an orexin gene (Hcrt): added from initiation of differentiation culturing at 0.2 and 1.0 mM, cells collected on 10th day, FIG. 2
Experimental: Mouse ES cells (J1 strain) which had been maintained in a medium for an ES cell [DMEM (Wako) added with 15% FBS (Biowest), 1 mM sodium pyruvate (Invitrogen), […] (Invitrogen), 2 mM L-glutamine (Invitrogen), 1 mM non essential amino acid (Invitrogen), 50 U/ml penicillin/50 μg/ml streptomycin (Invitrogen), 2000 U leukemia inhibitory factor (Chemicon, CA)] were seeded on a 10 cm culture dish so that the cell count became 1×10^5 cells per culture dish on which PA6 stromal cells had been seeded in advance, and differentiation induction was performed in a medium for neural differentiation [Glasgow MEM (Invitrogen) added with 10% KSR (Invitrogen), […] (Invitrogen), 1 mM non essential amino acid (Invitrogen), 50 U/ml penicillin/50 μg/ml streptomycin (Invitrogen)] for 10 days. On 4th and 7th days of differentiation culturing, the medium was exchanged. In addition, from 4th day of differentiation culturing, 5 nM recombinant human BMP4 (Wako) was added (FIG. 1). On 10th day of differentiation culturing, cells were collected and pelletized by a centrifugation operation to remove the culture medium. Thereafter, the pellets were immediately frozen in liquid nitrogen and stored at −80° C. until use.
The total RNA was extracted from the collected cells using RNeasy plus Mini Kit (QIAGEN). Then, a reverse transcription reaction was performed in a reaction liquid containing 1 μg of the total RNA, and Oligo (dT) using SuperScript III First Strand Synthesis System (Invitrogen) to synthesize a cDNA.
A PCR reaction was performed on a 10 μl scale, 1 U of LA-Taq DNA Polymerase (Takara) was added to 0.5 μl of a cDNA, 5 μl of 2×GC Buffer I, each 200 μM of dNTP, 1.5 mM MgCl2, and each primer having a final concentration of 0.2 μM, thermal denaturation was performed at 95° C. for 3 minutes, and the reaction was performed under the condition of (30 seconds at 95° C., 30 seconds at 55° C., and 30 seconds at 72° C.)×35 cycles (20 cycles in the case of Actb). The primers used are shown below.
Each PCR product was electrophoresed on a 2% agarose gel, stained with ethidium bromide, and a band was observed by UV irradiation.

[2] = tested on: human iPS cell strain 201B7; experiment: Hcrt expression with ManNAc plus Sirt inhibitor and Ogt inhibitor, neural differentiation from human iPS cell, RT-PCR; conditions: ManNAc 1.0 mM from 0th day, EX-527 50 nM and/or BADGP 5 mM on 14th day, collected 20th day; FIG. 10
Experimental: A human iPS cell strain 201B7 (HSP0001) was obtained from Riken BioResource Center via National BioResource Project (MEXT, Japan). The human iPS cell was maintained on a feeder layer of a mitomycin C-treated STO/Neo resistant/LIF (SNL) feeder cell in a primate ES medium (ReproCELL) complemented with 5 ng/mL recombinant human bFGF (Wako). The human iPS cell was co-cultured with PA6 for 20 days, for differentiation induction into a nerve with a SIDA and BMP4 system. From 7th day, 5 nM BMP4 was complemented. A detailed protocol of differentiation induction into a nerve cell is shown in the lower column of FIG. 11. From the initiation of differentiation culturing (0th day), ManNAc was added to a neural differentiation medium so that the concentration became 1.0 mM, and on 7th, 10th and 14th days of differentiation culturing, the medium was exchanged. In addition, from 7th day of differentiation culturing, 5 nM recombinant human BMP4 (Wako) was added. On 14th day of differentiation culturing, EX-527 (SIGMA-ALDRICH) was added to a neural differentiation medium so that the concentration became 50 nM, or BADGP (SIGMA-ALDRICH) was added to a neural differentiation medium so that the concentration became 5 mM, and on 20th day of differentiation culturing, cells were collected and subjected to RT-PCR. The conditions of RT-PCR are the same as those of Example 1.

[3] = tested on: Mouse ES cells (J1 strain); experiment: Hcrt expression with ManNAc plus Sirt inhibitor or Ogt inhibitor, neural differentiation from mouse ES cell, RT-PCR; conditions: ManNAc 1.0 mM from 0th day, EX-527 50 nM on 7th day, collected 10th day; FIG. 8
Experimental: According to the same manner as that described in Example 1, mouse ES cells (J1 strain) were cultured for 10 days for differentiation induction into a nerve cell. A protocol of inducing differentiation into a nerve cell is shown in the upper column of FIG. 11. From the initiation of differentiation culturing (0th day), ManNAc was added to a neural differentiation medium so that the concentration became 1.0 mM, and the medium was exchanged on 4th and 7th days of differentiation culturing. In addition, from 4th day of differentiation culturing, 5 nM recombinant human BMP4 (Wako) was added. On 7th day of differentiation culturing, EX-527 (SIGMA-ALDRICH) was added to a neural differentiation medium so that the concentration became 50 nM or BADGP (SIGMA-ALDRICH) was added to a neural differentiation medium so that the concentration became 1 or 5 mM, and on 10th day of differentiation culturing, cells were collected and subjected to RT-PCR. The conditions of RT-PCR are the same as those of Example 1.

[4] = tested on: Mouse ES cells (J1 strain); experiment: Hcrt expression in mouse ES cells, SFEB/gfCDM differentiation culture system, RT-PCR; conditions: 1.0 mM from 7th day of differentiation culturing; cells collected on 25th day; FIG. 5
Experimental: Mouse ES cells (J1 strain) which had been maintained in a medium for an ES cell were seeded on a 96-well low adhering round-bottom culture dish (Nunc) so that the cell count became 10,000 cells per well, and cultured with gfCDM [IMDM/F12 (Invitrogen) added with 5 mg/ml BSA (SIGMA), 450 μM Monothioglycerol (Wako), 1× chemically defined lipid concentrate (Invitrogen), 50 U/ml penicillin/50 μg/ml streptomycin] for 7 days. The cells were cultured in 150 μl of a medium per well. On 7th day of differentiation culturing, the medium was exchanged with a DFK medium [DMEM/F12 (Invitrogen) added with 7 g/1 glucose, 10% KSR, 50 U/ml penicillin/50 μg/ml streptomycin], and on 10th day, half the amount of the medium was exchanged with a DFNB medium [7 g/1 glucose, 1×N2 (Wako), 1×B27 (Invitrogen)] containing 10 ng/ml CNTF. On 13th day of culturing, cells were detached with 0.05% trypsin/EDTA, seeded on a culture dish (Falcon) which had been treated with poly-D-lysine/laminin so that the cell count became 4.8×10^6 cells per 10 cm culture dish, and cultured in a DFNB medium containing 10% FBS, 10 ng/ml CNTF, 50 ng/ml BDNF and 50 ng/ml NT3. The medium was exchanged every 3 days. On 25th day of differentiation culturing, cells were collected and pelletized by a centrifugation operation to remove the culture medium. Thereafter, the pellets were immediately frozen in liquid nitrogen, and stored at −80° C. until use.
The analysis was performed by the same method as that of Example 1.

Row | SMILES | Expression of Hcrt with changed time of addition [1] | Expression of an orexin gene (Hcrt) [1] | Expression of an orexin gene (Hcrt) [2] | Expression of an orexin gene (Hcrt) [3] | Expression of Hcrt [4]
1 | CC(=O)N[C@H]1C(O)O[C@H](CO)[C@@H](O)[C@@H]1O (stereo partly drawn) [GlcNAc, N-acetyl-D-glucosamine] | observed only in a ManNAc-added section | recognized only in a ManNAc-added section | – | – | –
2 | NC(=O)C1CCCc2c1[nH]c1ccc(Cl)cc21 (stereo not shown) [EX-527, 6-chloro-2,3,4,9-tetrahydro-1H-carbazole-1-carboxamide, reference compound] | – | – | recognized in a ManNAc-added section and an EX-527-added section to the same extent | expression of Hcrt was recognized | –
3 | CC(=O)N[C@H]1[C@H]([C@H](O)[C@H](O)CO)OC(O)(C(=O)O)C[C@@H]1O (stereo partly shown) [Neu5Ac, N-acetylneuraminic acid] | observed only in a ManNAc-added section | recognized only in a ManNAc-added section | – | – | expression of Hcrt was recognized

Reference: patent US9480695B2, “Methods for inducing orexin neurons and agent for treating narcolepsy or eating disorder” (THE UNIVERSITY OF TOKYO, priority 2011, dated 2016)
